Laboratory results as given in a melting point compilation (Tetko et al.; mined from patent text by program, amines drawn as free bases though some values may be those of a salt).

| melting point [°C] | SMILES |
| --- | --- |
| 171 to 172 | COC(=O)c1ccc(-c2nc(-c3ccc(Cl)s3)cs2)cc1 |
| 142 to 143 | COc1ccccc1C(=C/C=C/C(=O)Oc1ccc([N+](=O)[O-])cc1)c1ccccc1OC |
| 192 to 195 | CCn1ncnc1COc1nc2c(nnn2-c2ccccc2)c2ccccc12 |
| 310 to 313 | Cc1nc2c(C)cccn2c1C1=NNC(=O)CO1 |
| 74 to 76.5 | CCOC(=O)N1CC[C@H](Oc2cccc(F)c2)[C@H](c2ccccc2)C1 (relative stereo) |
| 261 to 263 | CN(C)c1ccc(Nc2ncc(C(=O)O)c(=O)[nH]2)cc1 |
| 169 to 171 | N#CC(C(=O)Nc1ccc(F)cc1F)C(=O)c1ccc[nH]1 (stereo not given) |
| 128 | Cc1ccc(Nc2cc(NCc3ccccc3)c(C(=O)O)cc2S(N)(=O)=O)cc1 |
| 99 | CCCCOc1cc(/C=C(\OCC)C(=O)O)ccc1OCCc1ccc(OS(=O)(=O)CCCC)c(F)c1 |
| 177 to 179 | CC(C)(C)c1cc(O)cc(C(C)(C)C)c1C=C1SC(NCO)=NC1=O |
| 109 to 110 | COC(=O)CC(=O)c1cnccn1 |
| 190 to 191 | COC(=O)C1=C(C)Nc2ccccc2SC1c1cccc(Cl)c1Cl (stereo not given) |
| 138 to 140 | COc1ccc(Cl)cc1C(=O)NS(=O)(=O)c1ccc(C(=O)Cl)cc1 |
| 78 to 79 | CCC(CC)c1nn(-c2ccc(C(F)(F)F)cn2)cc1CCCOc1c(CC(=O)O)ccnc1C |
| 146 to 159 | Nc1cc([N+](=O)[O-])ccc1Nc1cccc(-c2nccs2)c1 |
| 165 to 167 | COc1ccc(C(=O)Nc2ccc(C3(CNC(=O)C(C)(C)C)CCCC3)cc2)cc1OC |
| 123 to 124 | COC(=O)C(N)Cc1ccc(Oc2ccc(O)cc2)cc1 (stereo not given) |
| 32 to 34 | CCOC(=O)c1sc(OCC)nc1-c1ccccc1 |
| 98 to 102 | CCCN(CCC)CC(=O)OC1CC2(C)C(C(=O)CO)CCC2C2CCC3CC(O)CCC3(C)C12 (stereo not given) |
| 103 | Cc1cc2ncc(Cl)nc2cc1C |
| 193 | CC(C)c1ccc2[nH]c3c(c2c1)Cc1ccccc1-3 |
| 262 to 263 | COc1cc(C)c2c(c1C)CC(=O)N2 |
| 155 to 157 | CCCN(c1ccc(C(=O)OCC)cc1)c1nc(=O)c2cccnc2s1 |
| 179 to 181 | CCCCC(CC)C(=O)Nc1ccc(-n2nc3ccc(C(F)(F)F)cc3n2)c(O)c1 (stereo not given) |
| 270 to 274 | O=c1[nH]c2cc(Cl)cc(Cl)c2c(O)c1Sc1ccc(NS(=O)(=O)c2ccc(Cl)cc2)cc1 |

| melting point [°C] | SMILES |
| --- | --- |
| 106 | COc1ccc(C#Cc2ccc(C=O)cc2)cc1 |
| 132 to 134 | CC(=O)NCC(=O)NCC1(SCc2ccccc2)C2CC3CC(C2)CC1C3 (stereo not given) |
| 232 to 234 | CC(=O)Nc1nc2c(Oc3cc(-c4ccc(C(F)(F)F)cc4NCC4CCCCC4)ncn3)cccc2s1 |
| 75 to 78 | COc1nc2cc(F)cc(CN=[N+]=[N-])c2nc1OC |
| 157 to 159 | O=C(c1ccc(F)c(Cl)c1)N1CCC(F)(CNCc2ccc(CF)cn2)CC1 |
| 129 | COc1ccc(Cc2nc3c(cnn3C(CCCc3ccccc3)C(C)=O)c(=O)[nH]2)cc1 (stereo not given) |
| > 250 | Cc1c(-c2ccc3c(c2)C(N2Cc4ccccc4C2=O)C(O)C(C)(C)O3)c(=O)c1=O (stereo not given) |
| 178 to 179 | COC(=O)C1CC(C(=O)OC)NC(=O)N1 (stereo not given) |
| 105 to 107 | Cc1noc(NS(=O)(=O)c2sccc2-c2ccccc2)c1Br |
| 69 to 70 | N#CCc1ccccc1Sc1ccc(Cl)c(C(F)(F)F)c1 |
| 109 to 110 | CCOc1cc(Cn2cc(CCC(=O)O)c(-c3ccccc3)c2)cc(OCc2csc(-c3ccccc3)n2)c1 |
| 220 | O=C(Nc1ccccn1)Nc1cccc2c1C1CC(O)CCN1C2=O (stereo not given) |
| 94 to 95.5 | Clc1ccc(COc2ccccc2C(=NOCc2ccccc2)n2ccnc2)cc1 |
| 160 | CSc1ccc(C=CC(=O)c2ccc([N+](=O)[O-])cc2)cc1 |
| 164 to 165 | Cc1cc(Cn2c(=S)sc3ccccc32)cc(C)c1O |
| 141 to 142 | O=C(CSc1ccc(C(F)(F)F)cn1)C12CC3CC(CC(C3)C1)C2 |
| 130 to 132 | Cc1ccc(S(=O)(=O)c2ccc3c(c2)CCCC3)cc1 |
| 130 to 133 | CCNC(=O)NCCNc1nc(-c2ccc(F)cc2C)c2ccc(=O)n(-c3c(F)cccc3F)c2n1 |
| 133 to 134 | CCCCCC(=O)OCc1cc(O)ncn1 |
| 89 | N#Cc1cc(F)c(N)cc1Oc1ccc2ccccc2c1 |
| 95 to 97 | CCNC1CC=C(c2c[nH]c3cc(NC(=N)c4cccs4)ccc23)CC1 (stereo not given) |
| 107 to 109 | O=C1CCC(N2Cc3c(OCc4ccc(CN(CCC(F)(F)F)CCC(F)(F)F)cc4)cccc3C2=O)C(=O)N1 (stereo not given) |
| 122 | Cn1nc(-c2ccccc2)nc1-c1ccccc1CO |
| 133 to 135 | Cn1c(CO)nc2ccc(OCc3ccccc3)nc21 |
| 133 to 135 | CCOC(=O)CC[C@H](NC(=O)c1ccc(C(CO)CC2CNc3nc(NC(=O)C(C)(C)C)nc(O)c3C2)cc1)C(=O)OCC (stereo not given in full) |

| melting point [°C] | SMILES |
| --- | --- |
| 137 to 138 | COCCn1cc(C=O)c(-c2ccc([N+](=O)[O-])o2)n1 |
| 152 to 155 | COc1ccc(-c2nc(-c3ccccc3)c(N(c3ccccc3)c3ccccc3)s2)cc1 |
| 169 | CN(C)CCCNC(=O)c1ccccc1-c1cc2cc(Cl)c(Cl)cc2[nH]1 |
| 265 to 267 | Nc1ncnc2c1c(-c1ccc(NS(=O)(=O)c3ccccc3)c(O)c1)cn2C1CCCC1 |
| 101 to 102 | COC(=O)COc1ccc2cc(-c3ccc(-c4ccccc4)n3Cc3ccccc3)ccc2c1 |
| 93.5 to 94.5 | O=C1c2cc(Oc3ccc(Cl)cc3)ccc2CCN1Cc1cccnc1 |
| 214 to 215 | CCOc1ccc(-c2nc3n(c2-c2ccc(OCC)cc2)CCS3)cc1 |
| 176 to 178 | Nc1ccc(N2C(=O)c3ccccc3C2=O)cc1S(F)(F)(F)(F)F |
| 79 to 81 | COC(=O)c1ccc(S(=O)(=O)N2CC[C@H](OS(C)(=O)=O)C2)n1C |
| 139 to 142 | O=C(O)C=CC(=O)c1cccs1 |
| 136 to 137 | CC(C)(C)OC(=O)CCc1ccnc(-c2nc(=O)c3ccccc3s2)c1 |
| 92 to 94 | Cc1cc(C)c(N2CCCCC2)cc1NS(=O)(=O)C(F)(F)F |
| 86 to 87 | CC(C)(C)OC(=O)NCCNC(=O)c1ncccc1Oc1cccc(Cl)c1 |
| 232 to 235 | O=C(Nc1ncco1)C1c2ccccc2Oc2ccccc21 |
| 69 to 71 | Nc1ccccc1CC1NCCc2ccccc21 (stereo not given) |
| 45 to 47 | CCCCCCCCC(Oc1ccc(C(=O)CCCCCCC)cc1)C(=O)O (racemic) |
| 184 | NC(=NO)c1cc2cc(F)c(F)cc2o1 |
| 119 to 120 | COc1ccc(CCC(=O)Nc2c(C)c(C)c3c(c2C)C(c2ccc(C(C)C)cc2)CO3)cc1 (stereo not given) |
| 130 to 132 | Cc1ccc(CNC(=O)c2cc(Cl)cc3cc(C)oc23)cc1 |
| 245 to 247 | Cc1cccc(N2CC(=O)NC(=O)N2)c1 |
| 145 to 147 | C#CCn1c(=O)n(-c2ccccc2)c2ccccc21 |
| 123 to 126 | COC(=O)c1cc(-c2ccc(SC)cc2)nn(CC=Cc2ccc(Cl)cc2)c1=O |
| 153 to 157 | CSC1CCN(C(=O)CCSC(C)=O)C1C(=O)O (stereo not given) |
| 161 to 162 | CCCCCc1nc2ccccc2[nH]1 |
| 253 to 255 | COCCOc1cc(Cc2cnc(N)nc2N)cc2cccnc12 |

| melting point [°C] | SMILES |
| --- | --- |
| 178 to 180 | Cc1nc(-n2cc(C(=O)NCc3ccccc3)nn2)sc1C(=O)NCc1ccccc1 |
| 76 to 88 | OC(c1ccc(OC(F)(F)F)cc1)(c1ccc(OC(F)(F)F)cc1)C1CCN(Cc2c[nH]c3cccc(F)c23)CC1 |
| 138 to 142 | C[C@H](CS)C(=O)N1C(C(=O)O)CCC1c1ccccc1 (stereo not given in full) |
| 106 to 108 | C=C(C)C(=O)Oc1cc(C(=O)OCC)cc(O)c1O |
| 78 to 82 | COc1cc(C)nc(NCSc2ccc(Cl)cc2)n1 |
| 175 to 177 | C[C@H](NC(=O)OC(C)(C)C)[C@@H]1CCN(c2nc3c(cc2F)c(=O)n(N)c(=O)n3C2CC2)C1 |
| 119 to 121 | CC(=O)c1cn(C)c2ccc(C)cc12 |
| 155 | CN1CCN(c2ccc(Cl)c(C3(C)C(=O)Nc4ccc(Cl)cc43)c2)CC1 (stereo not given) |
| 187 to 190 | Cc1cc(NCC(C)C)c2[nH]nc(-c3ccccc3)c2n1 |
| 110 to 111 | CC(=O)S[C@H]1NC(=O)[C@H]1NC(=O)Cc1ccccc1 |
| 228 | COc1ccc(CNC(=O)CCC(=O)c2ccc3[nH]c4ncc(Cl)cc4c3c2)cc1 |
| 92 to 94 | CCCNC(=O)C(C)=Cc1ccc2[nH]ccc2c1 |
| 102 to 103 | CC(C)=CCCC(C)=CCOc1ccc(C(=O)Nc2cccnc2)cc1 |
| 75 to 76 | COc1ccc2c(c1OC)OC(C)(C)CC2=O |
| 142 to 148 | c1c(NC2CCCC2)nc(NC2CCCC2)nc1N1CCNCC1 |
| 106 to 108 | CCCc1c(OCCCSc2nc3ccc(C(=O)O)cc3[nH]2)ccc(C(C)=O)c1O |
| 127 to 128 | CN1C(=O)C2(COc3cc4c(cc32)OCCO4)c2c(C(=O)NC3CC3)cccc21 (stereo not given) |
| 96 to 99 | CN(C)C(=O)C1(n2ccc(-c3ccccc3)n2)CC1 |
| 210 | Cc1cn(-c2cccc(C3=Nc4ccc(C#Cc5ccc(F)cc5)cc4NC(=O)C3)c2)cn1 |
| > 300 | C=Cc1ccc(-c2ccc3c4ccc5c6c(ccc(c7cccc2c73)c64)C(=O)N(c2c(C(C)C)cccc2C(C)C)C5=O)cc1 |
| 160 to 162 | COc1ccc(S(=O)(=O)NCCc2ccc(CC(=O)O)cc2)cc1 |
| 169 to 180 | O=S(=O)(NCC(O)(Cn1cncn1)c1ccc(Cl)cc1Cl)c1cccs1 (stereo not given) |
| 158 to 161 | O=C1OC(=O)c2c(-c3ccccc3)c3ccccc3c3cccc1c23 |

| SMILES | melting point [°C] |
| --- | --- |
| CN(C)c1ncn2c1C[N+]([O-])=C(c1ccccc1F)c1cc(Cl)ccc1-2 | 203 to 206 |
| COCCCN(c1nc(Cl)nc(N(CCCOC)C2CC(C)(C)NC(C)(C)C2)n1)C1CC(C)(C)NC(C)(C)C1 | 160 to 161 |
